“Also recorded” adds a separate entry of the source. Where two headings read alike, the source gives them in different places. *1 amine or outer side, *2 acyl side, *3 side chain or, on linkers, in order; H or OH if unused. Where a SMILES comes first, the peptide text is derived from it. [ ]: non-standard residue; d: D form. The star is where a group is joined. ξ: configuration not given here. F2Pmp = N[C@@H](Cc1ccc(C(F)(F)P(=O)(O)O)cc1)C(=O)O; X3 = O=C1NC(=O)C(CC(N[*:1])C(=O)[*:2])C(=O)N1; X4 = O=S(=O)(Nc1ccc(*)cc1)C(F)(F)F; X2 = O=C(O)COc1ccc(*)cc1; X1 = O=C(O)Cc1ccc(*)cc1; Dap = NC[C@H](N)C(=O)O; ξDap = NCC(N)C(=O)O
What was measured:
[1] = molecular target: T1, catalytic domain of human PTP1B (Homo sapiens, UniProt P18031); assay: Enzyme activity assay of PTP1B with fluorogenic substrate DiFMUP; format: biochemical; settings: SD
T1 construct: catalytic domain of human PTP1B (amino acids 1–321); His7 (N, cleaved yes); made in house; host or cells: E. coli Rosetta (DE3)
T1 sequence (P18031 1-321): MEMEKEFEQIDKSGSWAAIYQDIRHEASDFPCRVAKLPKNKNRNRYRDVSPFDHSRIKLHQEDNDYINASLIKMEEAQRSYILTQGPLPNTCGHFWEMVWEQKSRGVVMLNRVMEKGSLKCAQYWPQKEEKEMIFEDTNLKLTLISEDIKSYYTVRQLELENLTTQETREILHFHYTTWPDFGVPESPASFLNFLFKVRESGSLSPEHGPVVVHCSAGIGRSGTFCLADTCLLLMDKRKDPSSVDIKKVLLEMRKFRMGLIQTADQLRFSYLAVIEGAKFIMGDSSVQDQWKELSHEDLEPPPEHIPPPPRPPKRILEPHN
Description: Protein Expression and purification: DNA encoding the catalytic domain of human PTP1B (amino acids 1–321) was subcloned into the pQLinkH vector. The gene encoding the N‐terminal His7‐tagged protein was over‐expressed at 17 °C in E. coli Rosetta (DE3). […] The His7‐tag was cleaved with tobacco etch virus protease at 20 °C prior to the gel‐filtration step. The catalytic domain of human SHP2 (amino acids 225–541) was purified from E. coli B21 (DE3). The overexpressed protein was fused to an N‐terminal His10‐tag. Cells were harvested and resuspended in 25 mM Tris‐HCl (pH=7.5), 50 mM NaCl, 1 % (v/v) Triton X‐100, 10 % (v/v) glycerol, 1 mM DTT. After cell lysis, debris was removed by centrifugation at 12,000 rpm for 30 min. The supernatant was filtered prior to affinity purification with Ni‐NTA agarose (Qiagen). The slurry was washed with 50 mM Tris‐HCl (pH=8.0), 500 mM NaCl supplemented with 25 mM imidazole. Reasonably pure protein was eluted with 200–300 mM imidazole. The purification was completed by size‐exclusion chromatography with a Superdex 75 16/600 column (GE Healthcare) equilibrated with 20 mM HEPES‐NaOH (pH=7.5), 50 mM NaCl, 1 mM DTT.
(§1) Enzyme activity assays of SHP2 and PTP1B: The catalytic activity of SHP2 catalytic domain and PTP1B were monitored using the fluorogenic substrate DiFMUP (6,8‐difluoro‐4‐methylumbelliferyl phosphate). Phosphatase reactions were performed at room temperature in 384‐well black plate, clear flat bottom, low flange, non‐binding surface (Corning, Cat# 3766) using a final volume of 20 μL and the following assay buffer conditions: 50 mM MOPS, pH=6.5, 200 mM NaCl, 50 μM TCEP, 0.03 % Tween‐20 (freshly added prior to each measurement). Test compounds were dissolved in DMSO or buffer at stock concentrations of 50, 20 or 10 mM and serially diluted. Enzyme (5 nM PTP1B or 2.5 nM SHP2 catalytic domain) and different concentrations of the tested compounds were incubated in buffer for 30–60 min at room temperature. Measurements were performed with a final concentration of 2.5 % DMSO unless stated otherwise at 37 °C and were performed in triplicate. Enzymatic reactions were started by adding DiFMUP (Invitrogen, cat# D6567) concentrations matching the experimentally determined KM values of the enzymes of 67 μM (PTP1B) or 72 μM (SHP2). Samples were excited at a wavelength of 360 nm and emitted fluorescence was recorded at 460 for 10 min using a microplate reader (infinite M1000 Pro, Tecan). Initial slope of fluorescence was determined in triplicate and IC50 values were calculated with GraphPad Prism 5. Determined IC50 values were converted into the corresponding KI values applying the Cheng Prusoff equation KI =IC50 /(1+[S]/KM ).

[2] = molecular target: T2, catalytic domain of human SHP2 (Homo sapiens, UniProt Q06124); assay: Enzyme activity assay of SHP2 catalytic domain with fluorogenic substrate DiFMUP; format: biochemical; settings: DiFMUP 72 μM (= KM), enzyme 1.5 nM, triplicate; from IC50 by Cheng-Prusoff (IC50/2); read-out: KI SHP2 (Table 2, footnote a)
T2 construct: catalytic domain of human SHP2 (amino acids 225–541); His10 (N); made in house; host or cells: E. coli B21 (DE3)
T2 sequence (Q06124 225-541): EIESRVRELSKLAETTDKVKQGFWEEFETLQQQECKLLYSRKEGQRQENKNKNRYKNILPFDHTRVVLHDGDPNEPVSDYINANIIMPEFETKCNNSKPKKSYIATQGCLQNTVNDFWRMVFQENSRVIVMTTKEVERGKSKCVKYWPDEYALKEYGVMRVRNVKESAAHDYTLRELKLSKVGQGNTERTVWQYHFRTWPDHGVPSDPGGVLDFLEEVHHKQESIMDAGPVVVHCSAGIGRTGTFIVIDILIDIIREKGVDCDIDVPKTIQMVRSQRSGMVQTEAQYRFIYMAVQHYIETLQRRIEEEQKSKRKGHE
Description: Enzyme activity assays of SHP2 and PTP1B: The catalytic activity of SHP2 catalytic domain and PTP1B were monitored using the fluorogenic substrate DiFMUP (6,8‐difluoro‐4‐methylumbelliferyl phosphate). Phosphatase reactions were performed at room temperature in 384‐well black plate, clear flat bottom, low flange, non‐binding surface (Corning, Cat# 3766) using a final volume of 20 μL and the following assay buffer conditions: 50 mM MOPS, pH=6.5, 200 mM NaCl, 50 μM TCEP, 0.03 % Tween‐20 (freshly added prior to each measurement). Test compounds were dissolved in DMSO or buffer at stock concentrations of 50, 20 or 10 mM and serially diluted. Enzyme (5 nM PTP1B or 2.5 nM SHP2 catalytic domain) and different concentrations of the tested compounds were incubated in buffer for 30–60 min at room temperature. […] Enzymatic reactions were started by adding DiFMUP (Invitrogen, cat# D6567) concentrations matching the experimentally determined KM values of the enzymes of 67 μM (PTP1B) or 72 μM (SHP2). Samples were excited at a wavelength of 360 nm and emitted fluorescence was recorded at 460 for 10 min using a microplate reader (infinite M1000 Pro, Tecan). Initial slope of fluorescence was determined in triplicate and IC50 values were calculated with GraphPad Prism 5. Determined IC50 values were converted into the corresponding KI values applying the Cheng Prusoff equation KI =IC50 /(1+[S]/KM ).

[3] = tested on: HGF‐induced tyrosine phosphorylation of ERK 1/2 in HeLa cells; assay: Western blot of p-ERK in HGF-stimulated HeLa cells; format: cell-based; settings: 1 h treatment
Description: Cellular experiments: HeLa cells were cultivated in DMEM buffer with 10 % FCS in 75 cm^2 cell culture flasks at 37 °C, 5 % CO2. At confluency of about 75 %, cells were seeded in a density of 250,000 cells/mL in 6‐well plates and incubated for 24 h. Subsequently, medium was removed and replaced by DMEM buffer with 0.1 % BSA (1 mL per well) and incubated for another 16 h. Hepatocyte growth factor (HGF, 20 ng/well) and test compounds in different final concentrations (1 μL, in DMSO) were added. Control wells received the same amount of DMSO (final concentration 0.1 %) or no addition. Plates were incubated for 1 h, then washed with cold PBS and shaken with lysis buffer (mPer reagent ThermoScientific # 78501 with 1 mM NaF, 2 mM Na3VO4, 25× protease inhibitor) for 5 min. Cell lysates were transferred to Eppendorf cups and centrifuged at 4 °C with 10,000 g for 10 min. […] The blot was incubated with anti‐phospo‐ERK as primary antibody (Cell Signaling # 9106, dilution 1 : 2000 in TBS‐Tween/ 2 % BSA) overnight at 4 °C, washed 3×5 min with TBS‐Tween, and incubated with anti‐mouse IgG‐hrp as secondary antibody (Santa Cruz # sc2031, 1 : 6000 in TBS‐ Tween/ 2 % BSA, RT, 1.5 h). The blot was again washed 3×5 min with TBS‐Tween and imaged with the ECL system (ThermoScientific # 34080) at Syngene PXi Imager. From the same lysis sample, under the same conditions, ERK 1/2 and β‐tubulin were blotted. For β‐tubulin, the antibody incubation time was adjusted to 2 h at RT.

SHP2 = molecular target: T3, SHP2 (Homo sapiens, UniProt Q06124); assay: Determination of KI using Michaelis-Menten kinetics; format: biochemical
T3 construct: catalytic domain of human SHP2 (amino acids 225–541); His10 (N); made in house; host or cells: E. coli B21 (DE3)
T3 sequence (Q06124 225-541): T2 sequence (Q06124 225-541)
Description: as §1
Determination of KI values using Michaelis-Menten kinetics
The assays for the determination of KI values were performed as described under the same conditions as mentioned in the main paper. The initial velocities of the enzymatic reaction inhibited by compound 21 were determined using four different inhibitor concentrations (0, 75, 100 and 150 nM) and four different substrate concentrations (100, 50, 25 and 12.5 µM).
Fluorescence was monitored over 10 min, during which the increase in fluorescence was linear. Initial velocities were calculated and were plotted as a function of the substrate concentration. The inhibition constant KI was determined using Michaelis-Menten kinetics applying GraphPad Prism 9 (Supplementary Figure 31). The obtained data were fitted to three different inhibition models, namely competitive, uncompetitive, and non-competitive inhibition.
The best fit was obtained for the competitive inhibition mode, resulting in the highest correlation […]
Supplementary Figure 31. Michaelis-Menten plots of compound 21 using inhibitor […]
Table 2. Results of Michaelis-Menten plots for different modes of inhibition of compound 21 (competitive, uncompetitive and non-competitive inhibition).
Inhibition model Competitive Uncompetitive Non-competitive
(1 picture or pasted object on this page, not shown here)

CC(=O)N[C@@H](CC(=O)O)C(=O)N[C@@H](C)C(=O)N[C@@H](CC(=O)O)C(=O)N[C@@H](CCC(=O)O)C(=O)N[C@@H](Cc1ccc(C(F)(F)P(=O)(O)O)cc1)C(=O)N[C@@H](CC(C)C)C(N)=O [Compound 2, Ac-DADE-(PDFM-F)-L-NH2, reference compound] (Ac-DADE[F2Pmp]L-NH2)
Ki ([1]; read-out: KI PTP1B): 1400 ± 400 nM

CC(=O)N[C@@H](CC(=O)O)C(=O)N[C@@H](C)C(=O)N[C@@H](CC(=O)O)C(=O)N[C@@H](CCC(=O)O)C(=O)NC(CNc1ccc(CC(=O)O)cc1)C(=O)N[C@@H](CC(C)C)C(N)=O (stereo partly drawn) [Compound 15] (Ac-DADE[ξDap](X1)L-NH2)
Ki ([1]; read-out: KI PTP1B): 138000 ± 21000 nM

CC(=O)N[C@@H](CC(=O)O)C(=O)N[C@@H](C)C(=O)N[C@@H](CC(=O)O)C(=O)N[C@@H](CCC(=O)O)C(=O)NC(CNc1ccc(OCC(=O)O)cc1)C(=O)N[C@@H](CC(C)C)C(N)=O (stereo partly drawn) [Compound 16] (Ac-DADE[ξDap](X2)L-NH2)
Ki ([1]; read-out: KI PTP1B): 213000 ± 21000 nM

CC(=O)N[C@@H](CC(=O)O)C(=O)N[C@@H](C)C(=O)N[C@@H](CC(=O)O)C(=O)N[C@@H](CCC(=O)O)C(=O)NC(CC1C(=O)NC(=O)NC1=O)C(=O)N[C@@H](CC(C)C)C(N)=O (stereo partly drawn) [Compound 17] (Ac-DADE[X3]L-NH2)
Ki [1]: 123000 ± 16000 nM

CC(=O)N[C@@H](CC(=O)O)C(=O)N[C@@H](C)C(=O)N[C@@H](CC(=O)O)C(=O)N[C@@H](CCC(=O)O)C(=O)N[C@@H](CNc1ccc(NS(=O)(=O)C(F)(F)F)cc1)C(=O)N[C@@H](CC(C)C)C(N)=O [Compound 18] (Ac-DADE[Dap](X4)L-NH2)
Ki ([1]; read-out: KI PTP1B): 202000 ± 21000 nM

O=C(O)Cc1ccc(N/N=C2\C(=O)N(c3ccc([N+](=O)[O-])cc3)N=C2c2ccc([N+](=O)[O-])cc2)cc1 [Compound 21, (Z)‐2‐(4‐(2‐(1,3‐Bis‐(4‐nitrophenyl)‐5‐oxo‐1,5‐dihydro‐4H‐pyrazol‐4‐ylidene)‐hydrazinyl)‐phenyl)‐acetic acid]
Ki [2]: 79 nM
Effect on HGF‐induced tyrosine phosphorylation of ERK 1/2 ([3]; Western blot, DMSO control): decreased
Concentration giving (complete) dephosphorylation of Erk / inhibition of Erk phosphorylation ([3]; HGF 20 ng/well, Western blot p-ERK): 6.25 µM
Ki (SHP2; Michaelis-Menten kinetics at different substrate concentrations, competitive model, read-out: KI SHP2 (Table 2, footnote b) (converted)): 32 nM
Mode of inhibition of SHP2 (SHP2; best fit among competitive, uncompetitive, non-competitive models): competitive inhibitor; also recorded: competitive mode of inhibition
KI by Michaelis-Menten kinetics, uncompetitive model (SHP2; inhibitor 0, 75, 100, 150 nM, DiFMUP 100, 50, 25, 12.5 µM, R2 0.8637): 8.4 nM
Ki (SHP2; inhibitor 0, 75, 100, 150 nM, DiFMUP 100, 50, 25, 12.5 µM, R2 0.8991, read-out: KI by Michaelis-Menten kinetics, non-competitive model): 46.5 nM
Ki (SHP2; inhibitor 0, 75, 100, 150 nM, DiFMUP 100, 50, 25, 12.5 µM, best fit, R2 0.9007, read-out: KI by Michaelis-Menten kinetics, competitive model): 32 nM

— paper PMC9804470, “A Formylglycine‐Peptide for the Site‐Directed Identification of Phosphotyrosine‐Mimetic Fragments” (Chemistry (Weinheim an Der Bergstrasse, Germany), 2022)
